Patent publication US11696893B2, “Preparation comprising vonoprazan” (Takeda Pharmaceutical Company Limited, priority 2017, dated 2023)

Key:
Format in all cases: physicochemical
[1] = Confirmation of dissolution control mechanism-1 (dissolution test, paddle 100 rpm); conditions: water-soluble polymer coated particle 3 of Reference Example 2, FIG. 14
Protocol: The water-soluble polymer coated particle 3 obtained in Reference Example 2 and containing 60 mg of compound A was subjected to a dissolution test using paddle at 100 rpm and in the same manner as in Experimental Example 1. The dissolution media was the Japanese Pharmacopoeia dissolution test 2nd fluid, the Japanese Pharmacopoeia dissolution test 2nd fluid added with 10% (W/W) sodium carbonate, the Japanese Pharmacopoeia dissolution test 2nd fluid added with 13% (W/W) succinic acid, or the Japanese Pharmacopoeia dissolution test 2nd fluid added with 0.6% (W/W) fumaric acid.

[2] = Dissolution profile of compound A, fumaric acid, succinic acid (Rotating Basket 100 rpm); conditions: water-insoluble polymer coated particle of Example 1 or coagulation inhibiting substance coated particle of Reference Example 3, 60 mg compound A; FIG. 12-13
Protocol: The water-insoluble polymer coated particle of Example 1 or the coagulation inhibiting substance coated particle of Reference Example 3, each of which contained 60 mg of compound A, was subjected to a dissolution test using Rotating Basket at 100 rpm and in the same manner as in Experimental Example 1. The dissolution amounts of fumaric acid or succinic acid as well as compound A were also measured. As for fumaric acid and succinic acid, the residual rate of each organic acid in the particles were inversely calculated from the dissolution rate, and the value of the maximum dissolution amount was normalized assuming 0% of the residual rate.

[3] = Dissolution amount of compound A in saturated organic acid; conditions: room temperature, shaken 1 hr
Protocol: Citric acid, succinic acid, fumaric acid or malic acid was dissolved and saturated in the Japanese Pharmacopoeia dissolution test 2nd fluid (JP2), and filtered. Successively, compound A (0.4 g) was added to a filtrate (10 mL) saturated with an organic acid and the mixture was shaken at room temperature for 1 hr. The solution after shaking was filtered, diluted 50-fold with the Japanese Pharmacopoeia dissolution test 2nd fluid, and the diluted solution was diluted 20-fold with the Japanese Pharmacopoeia dissolution test 2nd fluid. The solution obtained by diluting twice was subjected to HPLC measurement and the dissolution amount of compound A was measured.

[4] = Influence of concentration of fumaric acid or monosodium fumarate on dissolution amount of compound A (common ion effect); conditions: JP2 with various concentrations of fumaric acid or monosodium fumarate, room temperature, 1 hr; FIG. 11
Protocol: Solutions containing various concentrations of fumaric acid or monosodium fumarate dissolved in the Japanese Pharmacopoeia dissolution test 2nd fluid were prepared. Then, 50 mg of compound A was measured and charged in a 10 mL plastic tube and each of the above-mentioned solution (5 mL) was added and the mixture was vigorously shaken at room temperature for 1 hr. The suspension after shaking was filtered, diluted 100-fold and subjected to HPLC measurement. The dissolution amount of compound A was measured.

dissolution of compound A ([1]; JP2 added with 10% (W/W) sodium carbonate): suppressed dissolution
concentration (dissolution amount of compound A) ([3]; JP2, saturated organic acid: none): 5.22 µg·mL
concentration (dissolution amount of compound A) ([3]; JP2 saturated with citric acid): 26.30 µg·mL
concentration (dissolution amount of compound A) ([3]; JP2 saturated with fumaric acid, listed as Compound A, monofumarate): low concentration
concentration (dissolution amount of compound A) ([3]; JP2 saturated with fumaric acid, monofumarate): 0.67 µg·mL
concentration (dissolution amount of compound A) ([3]; JP2 saturated with malic acid): 26.64 µg·mL
SMILES: CNCc1cc(-c2ccccc2F)n(S(=O)(=O)c2cccnc2)c1.O=C(O)/C=C/C(=O)O [compound A, 1-[5-(2-Fluorophenyl)-1-(pyridin-3-ylsulfonyl)-1H-pyrrol-3-yl]-N-methylmethanamine monofumarate]
dissolution of compound A ([1]; JP2 added with 13% (W/W) succinic acid or 0.6% (W/W) fumaric acid): did not show a dissolution suppressive action
start of dissolution of compound A relative to organic acid [2]: started after dissolution of fumaric acid or succinic acid
dissolution amount of compound A [4]: influenced by the concentration of fumaric acid or monosodium fumarate
